± gives the expanded uncertainty stated by the source.
Key:
[1] = xn = mol fraction of the nth substance listed; conditions: 100 kPa, Liquid; for viscosity: Concentric cylinders viscometry; for mass density: Vibrating tube method
[2] = 100 kPa, Liquid; for viscosity: Concentric cylinders viscometry; for mass density: Vibrating tube method

O=C1CCCCC1 [cyclohexanone] + CCCCCCCCCO
[1], x1 = 1
Conditions | mass density [kg/m3] | viscosity [mPa·s]
293.15 K | 948.8 ± 20 | 2.3 ± 0.12
298.15 K | 943.1 ± 20 | 2.09 ± 0.11
303.15 K | 938.2 ± 20 | 1.91 ± 0.1
308.15 K | 933.5 ± 20 | 1.75 ± 0.09
313.15 K | 928.8 ± 20 | 1.6 ± 0.08
318.15 K | 924.4 ± 20 | 1.46 ± 0.07
323.15 K | 920.7 ± 20 | 1.34 ± 0.07

CCCCCCCCO [octan-1-ol]
[2]
Conditions | mass density [kg/m3] | viscosity [mPa·s]
293.15 K | 824.9 ± 20 | 9.13 ± 0.46
298.15 K | 821.4 ± 20 | 7.62 ± 0.38
303.15 K | 817.9 ± 20 | 6.41 ± 0.32
308.15 K | 814.4 ± 20 | 5.43 ± 0.27
313.15 K | 810.9 ± 20 | 4.63 ± 0.23
318.15 K | 807.3 ± 20 | 3.98 ± 0.2
323.15 K | 803.7 ± 20 | 3.4 ± 0.17

CCCCCCCO [heptan-1-ol]
[2]
Conditions | mass density [kg/m3] | viscosity [mPa·s]
293.15 K | 822.2 ± 20 | 7.03 ± 0.35
298.15 K | 818.7 ± 20 | 5.92 ± 0.3
303.15 K | 815.2 ± 20 | 5.03 ± 0.25
308.15 K | 811.6 ± 20 | 4.3 ± 0.22
313.15 K | 808 ± 20 | 3.71 ± 0.19
318.15 K | 804.4 ± 20 | 3.21 ± 0.16
323.15 K | 800.7 ± 20 | 2.79 ± 0.14

CCCCCCO [hexan-1-ol] + O=C1CCCCC1
[1], x2 = 0
Conditions | mass density [kg/m3] | viscosity [mPa·s]
293.15 K | 818.7 ± 20 | 5.37 ± 0.27
298.15 K | 815.1 ± 20 | 4.58 ± 0.23
303.15 K | 811.5 ± 20 | 3.94 ± 0.2
308.15 K | 807.9 ± 20 | 3.4 ± 0.17
313.15 K | 804.2 ± 20 | 2.95 ± 0.15
318.15 K | 800.6 ± 20 | 2.58 ± 0.13
323.15 K | 796.8 ± 20 | 2.26 ± 0.11

CCCCCCO [hexan-1-ol]
[2]
Conditions | mass density [kg/m3] | viscosity [mPa·s]
293.15 K | 818.7 ± 20 | 5.37 ± 0.27
298.15 K | 815.1 ± 20 | 4.58 ± 0.23
303.15 K | 811.5 ± 20 | 3.94 ± 0.2
308.15 K | 807.9 ± 20 | 3.4 ± 0.17
313.15 K | 804.2 ± 20 | 2.95 ± 0.15
318.15 K | 800.6 ± 20 | 2.58 ± 0.13
323.15 K | 796.8 ± 20 | 2.26 ± 0.11

CCCCCCCCCO [nonan-1-ol]
[2]
Conditions | mass density [kg/m3] | viscosity [mPa·s]
293.15 K | 827.5 ± 20 | 11.41 ± 0.57
298.15 K | 824 ± 20 | 9.43 ± 0.47
303.15 K | 820.5 ± 20 | 7.86 ± 0.39
308.15 K | 817.1 ± 20 | 6.61 ± 0.33
313.15 K | 813.6 ± 20 | 5.6 ± 0.28
318.15 K | 810.1 ± 20 | 4.78 ± 0.24
323.15 K | 806.5 ± 20 | 4.1 ± 0.21

CCCCCCCCCCO [decan-1-ol] + O=C1CCCCC1
[1], x2 = 0
Conditions | mass density [kg/m3] | viscosity [mPa·s]
293.15 K | 829.5 ± 20 | 14.42 ± 0.72
298.15 K | 826.1 ± 20 | 11.8 ± 0.59
303.15 K | 822.7 ± 20 | 9.76 ± 0.49
308.15 K | 819.3 ± 20 | 8.14 ± 0.41
313.15 K | 815.8 ± 20 | 6.84 ± 0.34
318.15 K | 812.4 ± 20 | 5.8 ± 0.29
323.15 K | 808.9 ± 20 | 4.96 ± 0.25

CCCCCO [pentan-1-ol]
[2]
Conditions | mass density [kg/m3] | viscosity [mPa·s]
293.15 K | 814.5 ± 20 | 4.03 ± 0.2
298.15 K | 810.8 ± 20 | 3.49 ± 0.18
303.15 K | 807.1 ± 20 | 3.04 ± 0.15
308.15 K | 803.3 ± 20 | 2.65 ± 0.13
313.15 K | 799.6 ± 20 | 2.32 ± 0.12
318.15 K | 795.8 ± 20 | 2.05 ± 0.1
323.15 K | 792 ± 20 | 1.81 ± 0.09

CCCCCCCCCCO [decan-1-ol]
[2]
Conditions | mass density [kg/m3] | viscosity [mPa·s]
293.15 K | 829.5 ± 20 | 14.42 ± 0.72
298.15 K | 826.1 ± 20 | 11.8 ± 0.59
303.15 K | 822.7 ± 20 | 9.76 ± 0.49
308.15 K | 819.3 ± 20 | 8.14 ± 0.41
313.15 K | 815.8 ± 20 | 6.84 ± 0.34
318.15 K | 812.4 ± 20 | 5.8 ± 0.29
323.15 K | 808.9 ± 20 | 4.96 ± 0.25

O=C1CCCCC1 [cyclohexanone] + CCCCCCCO
[1], x1 = 1
Conditions | mass density [kg/m3] | viscosity [mPa·s]
293.15 K | 948.8 ± 20 | 2.3 ± 0.12
298.15 K | 943.1 ± 20 | 2.09 ± 0.11
303.15 K | 938.2 ± 20 | 1.91 ± 0.1
308.15 K | 933.5 ± 20 | 1.75 ± 0.09
313.15 K | 928.8 ± 20 | 1.6 ± 0.08
318.15 K | 924.4 ± 20 | 1.46 ± 0.07
323.15 K | 920.7 ± 20 | 1.34 ± 0.07

CCCCCCCCO [octan-1-ol] + O=C1CCCCC1
[1], x2 = 0
Conditions | mass density [kg/m3] | viscosity [mPa·s]
293.15 K | 824.9 ± 20 | 9.13 ± 0.46
298.15 K | 821.4 ± 20 | 7.62 ± 0.38
303.15 K | 817.9 ± 20 | 6.41 ± 0.32
308.15 K | 814.4 ± 20 | 5.43 ± 0.27
313.15 K | 810.9 ± 20 | 4.63 ± 0.23
318.15 K | 807.3 ± 20 | 3.98 ± 0.2
323.15 K | 803.7 ± 20 | 3.4 ± 0.17

O=C1CCCCC1 [cyclohexanone]
[2]
Conditions | mass density [kg/m3] | viscosity [mPa·s]
293.15 K | 948.8 ± 20 | 2.3 ± 0.12
298.15 K | 943.1 ± 20 | 2.09 ± 0.11
303.15 K | 938.2 ± 20 | 1.91 ± 0.1
308.15 K | 933.5 ± 20 | 1.75 ± 0.09
313.15 K | 928.8 ± 20 | 1.6 ± 0.08
318.15 K | 924.4 ± 20 | 1.46 ± 0.07
323.15 K | 920.7 ± 20 | 1.34 ± 0.07

CCCCCO [pentan-1-ol] + O=C1CCCCC1
[1], x2 = 0
Conditions | mass density [kg/m3] | viscosity [mPa·s]
293.15 K | 814.5 ± 20 | 4.03 ± 0.2
298.15 K | 810.8 ± 20 | 3.49 ± 0.18
303.15 K | 807.1 ± 20 | 3.04 ± 0.15
308.15 K | 803.3 ± 20 | 2.65 ± 0.13
313.15 K | 799.6 ± 20 | 2.32 ± 0.12
318.15 K | 795.8 ± 20 | 2.05 ± 0.1
323.15 K | 792 ± 20 | 1.81 ± 0.09

Source: the NIST ThermoML archive (doi:10.1021/acs.jced.8b00201)
